Here are results for 12 molecules from patent EP4566596A1, “ANTI-HBV AGENT” (RIKEN, priority 2022, dated 2024).

What is called IC50 is the concentration that gives 50% inhibition. The term half-life denotes the time in which the quantity being followed falls by half.

In series [1] the test system is pgRNA in PXB cells. The experiment in a line: Anti-HBV activity using hepatitis B virus-infected primary cultured human hepatocytes (pgRNA, qPCR). The settings on record: 7 days treatment; for IC50: Hepatitis B virus, Hepatocyte, compound added after 28 days; for effect of suppressing pgRNA: FIG. 3. The series is classed as cell-based. For orientation: Quantitative PCR measures a nucleic acid by following its amplification.

Series [2] has as its system HBV DNA from Hep2.2.15.7. Description: Anti-HBV activity using hepatitis B virus-producing cultured cells (HBV DNA in culture medium, qPCR). The series is classed as cell-based. Conditions: 144 h, Hep2.2.15.7 cells, HBV DNA in culture medium after 6 days. The protocol: Hep2.2.15.7 cells were spread in a 96-well plate (manufactured by TPP) at a density of 1 × 10^5 cells/well and cultured at 37°C and 5% CO2 using a culture medium containing DMEM/F12-GlutaMAX (manufactured by Thermo Fisher Scientific Inc.), 10% fetal bovine serum, 100 U/ml penicillin, 100 µg/ml streptomycin (manufactured by Thermo Fisher Scientific Inc.), and 5 µg/ml insulin (manufactured by Wako Pure Chemical). A test compound was added to the culture, and cells in three wells per condition were cultured. After 3 days, replacement with a medium containing the test compound was performed. After 6 days, cell viability was determined by quantitatively measuring intracellular mitochondrial activity. This was performed by measuring absorbance at 490 nm using Cell Proliferation Kit II (XTT) (manufactured by Roche) and a plate reader, EnSight (manufactured by PerkinElmer). At the same time, HBV-derived DNA was extracted and purified from the cell culture medium using Agencourt Genfind v2 (manufactured by Beckman-Coulter). […].

Series [3] is classed as in vitro ADME, rat. On the procedure: (§1) Then, 50 µL of a NADPH regeneration system (85 mM D-glucose-6-phosphate, 10 mM β-nicotinamide adenine dinucleotide phosphate, oxidized form, and 10 U/mL glucose-6-phosphate dehydrogenase, all manufactured by Oriental Yeast Co., Ltd.) was added and mixed, and incubation was started. The incubation starting point was set to 0 minutes of reaction. At 0, 30, and 60 minutes of reaction, a 50-µL fraction of the reaction solution was collected into 200 µL of an ice-cooled 0.5 µM propranolol/acetonitrile solution, and the reaction was stopped. The obtained preparative solution was transferred to a protein removal plate (manufactured by Phenomenex), and after suction filtration through a manifold for 96-well plates, the filtrate was collected into a 96-well plate for collection. 100 µL of the collected filtrate was transferred to a 96-well plate and dried in a nitrogen-blowing high-speed parallel concentrator (Turbo Vap 96, manufactured by Biotage). After dissolving the dried sample with the initial mobile phase, the target compound was quantified by liquid chromatography-tandem mass spectrometry (LC-MS/MS). […] As technical replicates, the residual rate was calculated in two independent series for each compound to be evaluated for each animal species.
(§2) The configuration of LC-MS/MS is as follows: high-performance liquid chromatography: Nexera X2 UPLC system (manufactured by Shimadzu), column: ACQUITY UPLC BEH C18 Column, 130A, 1.7 µm, 2.1 ×× 50 mm (manufactured by Waters), guard column: ACQUITY UPLC BEH C18 VanGuard Column, 130A, 1.7 µm, 2.1 ×× 50 mm (manufactured by Waters), mobile phase A: 0.1% aqueous formic acid solution/acetonitrile (9:1, v/v), mobile phase B: 0.1% aqueous formic acid solution/acetonitrile (1:9, v/v), gradient conditions: 0 to 1 min; 30% B, 1 to 1.5 min; 30 to 100% B, 1.5 to 3.5 min; 100% B, and 3.5 to 5 min; 30% B, and mass spectrometer: QTRAP 4500 (manufactured by AB Sciex) were used, a measurement target compound was ionized using an ESI method, and target ions were measured by multiple reaction monitoring. […]

Series [4] is classed as in vitro ADME, mouse. On the procedure:
as §1, §2

Series [5] is classed as in vitro ADME, human. On the procedure: as §1, §2
A short description of series [6]: Mouse blood drug concentrations after oral administration (LC-MS/MS). Format: in vivo, mice (ICR strain). Conditions: ICR mice, plasma; for half-life: mouse, read-out: Elimination half-life. The protocol: A compound was dissolved in a mixture of ethanol and polysorbate 80 (1:1) to make 10 mg/mL, and the resulting mixture was diluted with saline to 1 mg/mL and orally administered to mice (ICR strain, males, 6-10 weeks old) using a sonde. Blood was collected from the tail vein at 0.25, 0.5, 1, 2, 4, and 7 hours after administration, and plasma was obtained. An internal standard (ritonavir) was added to 10 µL of plasma, and a deproteinized sample was used for measurement. The measurement was performed according to a liquid chromatography-tandem mass spectrometry method using a Shimadzu LCMS-8050 system. The analytical conditions were as follows. A COSMOSIL 3C18-MS-II (2.0 ID × 50 mm; manufactured by Nacalai Tesque, Inc.) column was used. The column temperature was 40°C, and the autosampler temperature was 4°C. The mobile phase was a combination of Phase A: water/acetonitrile = 9/1 (v/v) and Phase B: acetonitrile, and the flow rate was 0.6 mL/min. 2 µL of the sample was injected. The gradient elution conditions were 0 to 0.9 min, 5% B; 0.9 to 2.1 min, 5 to 95% B; 2.1 to 5.5 min, 95% B; 5.5 to 5.51 min, 95 to 5% B; and 5.51 to 6.0 min, 5% B. The cleaning solution used was an isopropanol/methanol/acetonitrile/water = 1/1/1/1 (v/v/v/v, %) solution containing 0.1% formic acid. The ionization method was ESI, and the collected data was processed using LabSolutions software (Ver. 5.97 SP1, Shimadzu Corporation).

Series [7] concerns cccDNA. Description: Effect of suppressing cccDNA in HBV-infected PXB cells (qPCR). Format: cell-based, HBV genotype C. The settings on record: 7 days treatment, FIG. 3. On the procedure: Fresh human hepatocytes derived from PXB mice (PXB cells; manufactured by PhoenixBio Co., Ltd.) were spread in a collagen-coated 96-well plate (manufactured by FALCON) at a density of 0.7 × 10^5 cells/well, and cultured for 7 days using a dHCGM medium (manufactured in house) at 37°C and 5% CO2. HBV genotype C (manufactured by PhoenixBio Co., Ltd.) was added to the culture medium together with 4% PEG 8000 at a final density of 3.5 × 10^5 copies/well, and the medium was replaced after 1 day, and every third or fourth day thereafter. A test compound was added after 28 days, and cells in three wells per condition were cultured. Then, replacement with a medium containing the test compound was also performed after 3 or 4 days, and after 7 days, DNA was extracted and purified from the cells using Agencourt DNAdvance (manufactured by Beckman-Coulter). […]

For series [8], the system named is HBc (1-149). Description: Capsid formation mechanism: gel filtration and electron microscopy of recombinant HBc (1-149). The series is classed as biochemical, HBV genotype C. On the procedure:
An expression plasmid in which the ubiquitin-like protein SUMO serving as a tag was fused to the sequence of the association domain (1-149) of HBc of genotype C was prepared and introduced into the Escherichia coli KRX strain, and a recombinant protein was expressed and purified. After the recombinant HBc (1-149) was cleaved with a SUMO protease to remove the tag, the dimer peak was separated by gel filtration and used for subsequent analyses. […]
This behavior is similar to that of the compound CBT-078. […] A fraction was collected from the elution peak at the position corresponding to the capsid, and a negatively stained image was captured using an electron microscope.
In general terms: Size exclusion chromatography separates by hydrodynamic size, large species first.

The test system of series [9] is HBV genotype C. Description: Anti-HBV activity in hepatitis B virus-infected human hepatocyte chimeric mice (serum HBV DNA). Format: in vivo, Human hepatocyte-transplanted chimeric mice (PXB mice). The settings on record: 10 mg/kg orally twice daily for 21 days, FIG. 4.
Series [10] has as its target HBc T33N (Hepatitis B virus genotype D subtype ayw, UniProt P03146, T33N). The experiment in a line: HBV replication assay in HeLa cells, HBc T33N mutant. Format: cell-based.
Series [11] has as its system HBV. Description: Effect of suppressing HBsAg, HBeAg and pgRNA in primary cultured human hepatocytes infected with HBV. Format: cell-based. The settings on record: concentrations of 0.01 to 100 mM, FIG. 2. The protocol: Primary cultured human hepatocytes infected with HBV were treated with the compound CBT-289 or Entecavir (ETV) at concentrations of […], and the HBsAg and HBeAg levels in the medium and the pgRNAlevel in the cells were measured.

Where “and” joins values, the source holds several entries; their conditions need not be identical. Equal values may be shown once. Read-outs that look alike come from different tables or passages of the source.

Sequence of HBc T33N (P03146 whole entry T33N, looked up): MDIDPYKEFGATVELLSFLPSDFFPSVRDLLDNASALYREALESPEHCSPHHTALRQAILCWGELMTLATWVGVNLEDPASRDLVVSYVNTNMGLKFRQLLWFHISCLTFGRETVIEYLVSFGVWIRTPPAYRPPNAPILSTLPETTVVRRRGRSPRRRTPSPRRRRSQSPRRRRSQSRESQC

With `CCCNC(=O)c1ccc(NC(=O)c2cccc(C(=O)Nc3ccc(F)cc3)c2F)c(C)c1` [CBT-383], the IC50 was determined as 2330 nM in [1] and 910 nM in series [2].

Regarding `Cc1ccccc1NC(=O)c1cccc(C(=O)Nc2ccc(F)cc2)c1F` [CBT-078, reference compound], the “effect of suppressing pgRNA” value in [1] is “did not have the effect of suppressing pgRNA”. The residual rate in series [3] (Rat liver microsomes, 0 min (baseline)) was 100%; in [3] (Rat liver microsomes, 30 min), 53% and 52%; in series [3] (Rat liver microsomes, 60 min) it was 35% and 34%; in [4] (Mouse liver microsomes, 0 min (baseline)) it was 100%; in series [4] (Mouse liver microsomes, 30 min) it was 6%; in [4] (Mouse liver microsomes, 60 min) it was 0%. In addition, the residual rate was 100% in [5] (Human liver microsomes, 0 min (baseline)); 77% in series [5] (Human liver microsomes, 30 min); 60% and 58% in series [5] (Human liver microsomes, 60 min). In series [6], the Maximum blood concentration came to 710 ng/mL. The “Time to reach maximum blood concentration” value in series [6] was found to be 30 min. Further, the half-life in [6] (in vivo) worked out at 0.533 h. This molecule also registered an IC50 in series [2] of 270 nM. Further, in series [7], the “effect of suppressing cccDNA” value was “did not have the effect of suppressing pgRNA or cccDNA”.

Take `Cc1cc(C#N)ccc1NC(=O)c1cccc(C(=O)Nc2ccc(F)cc2)c1F` [CBT-209]: the residual rate was determined as 100% in series [3] (rat, 0 min, 1 µM, pH 7.4); 100% in [4] (mouse, 0 min, 1 µM, pH 7.4); 100% in [5] (human, 0 min, 1 µM, pH 7.4). Further, the “association state of HBc (1-149) by gel filtration” value in series [8] (11 µM HBc (1-149), 15 µM compound, overnight incubation at 4°C, FIG. 5) is given as “the elution peak shifted to the position corresponding to the capsid”. In addition, the “stability of the capsids formed” value in [8] (7 days of incubation, gel filtration and electron microscope) is reported as “stable even after 7 days of incubation”. Moreover, the Maximum blood concentration in series [6] came out at 250 ng/mL. For the same molecule, the “Time to reach maximum blood concentration” value in series [6] was determined as 120 min. The half-life in series [6] (male) stood at 13.8 h. Also, inhibition in series [2] was half-maximal at 39 nM (IC50). Further, the “HBV DNA level in the serum” value in series [9] is listed as “preferentially reduced compared with GLS4 or the vehicle”. The “antiviral activity against viruses with the HBc T33N mutation” value in series [10] was “have antiviral activity even against viruses with the HBc T33N mutation”.

In the case of `CCCCCCNC(=O)c1ccc(NC(=O)c2cccc(C(=O)Nc3ccc(F)cc3)c2F)c(C)c1` [CBT-388], the IC50 was found to be 4590 nM in series [1] and 180 nM in [2].

For `C=CCCNC(=O)c1ccc(NC(=O)c2cccc(C(=O)Nc3ccc(F)cc3)c2F)c(C)c1` [CBT-387], the results for the IC50 in series [1] and in [2] were 3410 nM and 41 nM, respectively.

For `CCC[C@@H](C)NC(=O)c1ccc(NC(=O)c2cccc(C(=O)Nc3ccc(F)cc3)c2F)c(C)c1` [CBT-391], the IC50 in [1] is 2480 nM; in series [2] it was 95 nM.

Regarding `CCCCCCCCCCNC(=O)c1ccc(NC(=O)c2cccc(C(=O)Nc3ccc(F)cc3)c2F)c(C)c1` [CBT-389], the figures for the IC50 in [1] and in series [2] were 100000 nM and 470 nM, respectively.

On to `CCNC(=O)c1ccc(NC(=O)c2cccc(C(=O)Nc3ccc(F)cc3)c2F)c(C)c1` [CBT-384], for which the IC50 in series [1] worked out at 16500 nM; in series [2], 75 nM.

As for `Cc1cc(C(=O)NC(C)(C)C)ccc1NC(=O)c1cccc(C(=O)Nc2ccc(F)cc2)c1F` [CBT-385], the figures for the IC50 in [1] and in series [2] were > 100000 nM and 180 nM, respectively.

Consider `Cc1cc(C(=O)NCCC(C)C)ccc1NC(=O)c1cccc(C(=O)Nc2ccc(F)cc2)c1F` [CBT-390], for which the results for the IC50 in [1] and in series [2] were 730 nM and 61 nM, respectively.

Consider `CCCCNC(=O)c1ccc(NC(=O)c2cccc(C(=O)Nc3ccc(F)cc3)c2F)c(C)c1` [CBT-289], for which, in series [1], the “effect of suppressing pgRNA” value is “suppressed cccDNA and pgRNA in a concentration-dependent manner”; the midpoint of inhibition, the IC50, lay at 2480 nM. The same molecule gave an IC50 in series [2] of 74 nM. Further, in series [11], the “HBeAg level in the medium” value was “suppressed HBsAg, HBeAg, and pgRNAin a concentration-dependent manner”; the “HBsAg level in the medium” value was “suppressed HBsAg, HBeAg, and pgRNAin a concentration-dependent manner”; the “pgRNA level in the cells” value is “suppressed HBsAg, HBeAg, and pgRNAin a concentration-dependent manner”. The “effect of suppressing cccDNA” value in series [7] is “suppressed cccDNA and pgRNA in a concentration-dependent manner”.

With `C=C1[C@H](CO)[C@@H](O)C[C@@H]1n1cnc2c(=O)[nH]c(N)nc21` [ETV, Entecavir, reference compound], in series [11], the “HBeAg level in the medium” value is “did not suppress them”, the “HBsAg level in the medium” value is reported as “did not suppress them” and the “pgRNA level in the cells” value is listed as “did not suppress them”.
